Source: publication PMC2850129, “Changes in Activity and Kinetic Properties of the Proteasome in Different Rat Organs during Development and Maturation” (Current Gerontology and Geriatrics Research, 2010)
Starred links: 1 amine or outer side, 2 acyl side, 3 side chain; linkers in the order of their positions; H or OH if unused. Residues, ends and D or L forms follow the SMILES beside them. *: point of attachment. AMC = Cc1cc(=O)oc2cc(N*)ccc12; Suc = O=C(CCC(=O)[*:2])[*:1]; Cbz = O=C(OCc1ccccc1)*; Boc = CC(C)(C)OC(=O)*

Molecular target: T1, proteasome (Rattus norvegicus, UniProt P28073+P28075+Q9JHW0)
T1 construct: gene Psmb5; native, not purified; soluble fraction (100,000 g supernatant) of liver, brain or lens homogenate; 20S/26S and immunoproteasome content not resolved; with Proteasome subunit beta type-1; Proteasome subunit beta type-2; Proteasome subunit beta type-3; Proteasome subunit beta type-4; Proteasome subunit alpha type-1; Proteasome subunit alpha type-2; Proteasome subunit alpha type-3; Proteasome subunit alpha type-4; Proteasome subunit alpha type-5; Proteasome subunit alpha type-6; Proteasome subunit alpha type-7
Test: fluorogenic AMC release, Lineweaver-Burk plot
Type: biochemical
Details: liver soluble fraction, Tris pH 7.5, EDTA, 2 mM DTT, 37°C, per-animal values versus age, brain and lens in Figures 2 and 3

For Cc1cc(=O)oc2cc(NC(=O)[C@H](CCC(=O)O)NC(=O)[C@H](CC(C)C)NC(=O)[C@H](CC(C)C)NC(=O)OCc3ccccc3)ccc12 [LLE, Z-Leu-Leu-Glu-AMC] (Cbz-Leu-Leu-Glu-{AMC}), the K m (peptidylglutamyl peptidase site (beta1)) was “Michaelis-Menten constants (K m) of the proteasome in rat liver versus age”.

For Cc1cc(=O)oc2cc(NC(=O)[C@H](Cc3ccc(O)cc3)NC(=O)[C@@H](NC(=O)[C@H](CC(C)C)NC(=O)[C@H](CC(C)C)NC(=O)CCC(=O)O)C(C)C)ccc12 [LLVY, Suc-Leu-Leu-Val-Tyr-AMC] (Suc-LLVY-{AMC}), the K m (chymotrypsin-like site (beta5)) was “Michaelis-Menten constants (K m) of the proteasome in rat liver versus age”.

Cc1cc(=O)oc2cc(NC(=O)[C@H](CCCNC(=N)N)NC(=O)CNC(=O)[C@@H](NC(=O)OC(C)(C)C)C(C)C)ccc12 [VGR, Boc-Val-Gly-Arg-AMC] (Boc-Val-Gly-Arg-{AMC}) was tested, and the K m (trypsin-like site (beta2)) was “Michaelis-Menten constants (K m) of the proteasome in rat liver versus age”.
